Source: patent US5760092A, “Allocolchinones and uses thereof” (Brandeis University, priority 1996, dated 1998)
pIC50: −log10 of the molar value. Several values for one entry are separate records, joined by “and”; a condition that tells them apart may be missing. Equal entries are not always repeated. Where two headings read alike, the source gives them in different places.

What was measured:
[1] = test system: MCF7/ADR-RES breast cancer cells; experiment: cells; assay type: cell-based
[2] = test system: tubulin; assay type: biochemical, calf
[3] = test system: tubulin; experiment: Binding to tubulin
[4] = test system: MOLT-4 leukemia cells
[5] = test system: HOP-62 non-small cell lung cancer cells
[6] = test system: HOP-92 non-small cell lung cancer cells
[7] = test system: SF-268 CNS cancer cells
[8] = test system: SF-539 CNS cancer cells
[9] = test system: SNB-19 CNS cancer cells
[10] = test system: SNB-75 CNS cancer cells
[11] = test system: U251 CNS cancer cells
[12] = test system: OVCAR-3 ovarian cancer cells
[13] = test system: OVCAR-8 ovarian cancer cells
[14] = test system: SK-OV-3 ovarian cancer cells; conditions: log10 conc -6.0; 1 µM
[15] = test system: A498 renal cancer cells; conditions: log10 conc -6.0; 1 µM
[16] = test system: CAKI-1 renal cancer cells
[17] = test system: HS 578T breast cancer cells
[18] = test system: HOP-62 non-small cell lung cancer cells; experiment: cells; conditions: Homo sapiens
[19] = test system: SF-295 CNS cancer cells; experiment: cells; conditions: Homo sapiens
[20] = test system: OVCAR-3 ovarian cancer cells; experiment: cells; conditions: Homo sapiens
[21] = test system: SK-OV-3 ovarian cancer cells; experiment: cells; conditions: Homo sapiens
[22] = test system: A498 renal cancer cells; experiment: cells; conditions: Homo sapiens
[23] = test system: CAKI-1 renal cancer cells; experiment: cells; conditions: Homo sapiens
[24] = test system: HS 578T breast cancer cells; experiment: cells; conditions: Homo sapiens

COc1cc2c(c(OC)c1OC)-c1ccc(C(C)=O)cc1C(NC(C)=O)CC2 (centres unmarked)
GI50 [1]: 23 nM | GI50 ([1]; Homo sapiens, MCF7): 21.1 nM | activity at 100 µM ([1]; Homo sapiens, MCF7, read-out: Percent Growth, log10 conc -4.0): -1% | activity at 10 µM ([1]; Homo sapiens, MCF7, read-out: Percent Growth, log10 conc -5.0): -1% | activity at 1 µM ([1]; Homo sapiens, MCF7, read-out: Percent Growth, log10 conc -6.0): 37% | activity at 0.01 µM ([1]; Homo sapiens, MCF7, read-out: Percent Growth, log10 conc -8.0): 56% | activity at 0.001 µM ([1]; Homo sapiens, MCF7, read-out: Percent Growth, log10 conc -9.0): 73% | activity at 0.0001 µM ([1]; Homo sapiens, MCF7, read-out: Percent Growth, log10 conc -10.0): 91% | activity relative to colchicine (inhibition of microtubule assembly) ([2]; drug to tubulin molar concentration ratio of about 0.030): about 20% | inhibition of microtubule formation compared with colchicine ([2]; in vitro): more active than colchicine | pIC50 ([2]; in vitro, read-out: LC50 (inhibition of microtubule assembly in vitro)): 6.52 | plateau turbidity ([2]; increasing amounts of drug, tubulin 2.1×10^-5 M): decrease in plateau turbidity | binding to tubulin [3]: reversible | Percent Growth ([4]; log10 conc -4.0, 100 µM): -5% | Percent Growth ([4]; log10 conc -5.0): 5% | Percent Growth ([4]; log10 conc -6.0, 1 µM): 5% | Percent Growth ([4]; log10 conc -8.0): 34% | Percent Growth ([4]; log10 conc -9.0, 0.001 µM): 32% | Percent Growth ([4]; log10 conc -10.0, 0.0001 µM): 106% | GI50 [5]: < 10 nM | Percent Growth ([5]; log10 conc -6.0, 1 µM): 31% | Percent Growth ([5]; log10 conc -7.0, 0.1 µM): 29% | Percent Growth ([5]; log10 conc -8.0, 0.01 µM): 45% | Percent Growth ([6]; log10 conc -6.0, 1 µM): 11% | Percent Growth ([6]; log10 conc -7.0, 0.1 µM): 24% and 45% | Percent Growth ([6]; log10 conc -8.0, 0.01 µM): 45% and 66% | Percent Growth ([7]; log10 conc -4.0, 100 µM): 32% | Percent Growth ([7]; log10 conc -5.0): 37% | Percent Growth ([7]; log10 conc -6.0, 1 µM): 36% and 38% | Percent Growth ([7]; log10 conc -7.0, 0.1 µM): 35% and 45% | Percent Growth ([7]; log10 conc -9.0, 0.001 µM): 40% | Percent Growth ([7]; log10 conc -10.0, 0.0001 µM): 92% | Percent Growth ([8]; log10 conc -4.0, 100 µM): -27% | Percent Growth ([8]; log10 conc -5.0): -31% | Percent Growth ([8]; log10 conc -6.0, 1 µM): -24% | Percent Growth ([8]; log10 conc -7.0, 0.1 µM): -24% | Percent Growth ([8]; log10 conc -8.0): -16% | Percent Growth ([8]; log10 conc -9.0, 0.001 µM): 19% | Percent Growth ([8]; log10 conc -10.0, 0.0001 µM): 100% | Percent Growth ([9]; log10 conc -4.0, 100 µM): 6% | Percent Growth ([9]; log10 conc -5.0): 7% | Percent Growth ([9]; log10 conc -6.0, 1 µM): 36% | Percent Growth ([9]; log10 conc -8.0, 0.01 µM): 25% and 16% | Percent Growth ([9]; log10 conc -9.0, 0.001 µM): 63% | Percent Growth ([9]; log10 conc -10.0, 0.0001 µM): 99% | Percent Growth ([10]; log10 conc -4.0, 100 µM): 39% | Percent Growth ([10]; log10 conc -5.0): 43% | Percent Growth ([10]; log10 conc -6.0, 1 µM): 52% and 43% | Percent Growth ([10]; log10 conc -7.0, 0.1 µM): 46% and 50% | Percent Growth ([10]; log10 conc -8.0, 0.01 µM): 41% and 44% | Percent Growth ([10]; log10 conc -9.0, 0.001 µM): 17% | Percent Growth ([10]; log10 conc -10.0, 0.0001 µM): 96% | Percent Growth ([11]; log10 conc -4.0, 100 µM): 4% | Percent Growth ([11]; log10 conc -5.0): 3% | Percent Growth ([11]; log10 conc -9.0, 0.001 µM): 23% | Percent Growth ([11]; log10 conc -10.0, 0.0001 µM): 96% | TGI [12]: > 100000 nM | Percent Growth ([12]; log10 conc -6.0, 1 µM): 7% | Percent Growth ([12]; log10 conc -7.0, 0.1 µM): 15% | Percent Growth ([12]; log10 conc -8.0): 23% | Percent Growth ([13]; log10 conc -4.0, 100 µM): -45% | Percent Growth ([13]; log10 conc -5.0): -29% | Percent Growth ([13]; log10 conc -6.0, 1 µM): 9% | Percent Growth ([13]; log10 conc -9.0, 0.001 µM): 25% | Percent Growth ([13]; log10 conc -10.0, 0.0001 µM): 96% | Percent Growth [14]: 10% | Percent Growth [15]: 25% | TGI [16]: > 100000 nM | Percent Growth ([17]; log10 conc -6.0, 1 µM): 25% | Percent Growth ([17]; log10 conc -8.0, 0.01 µM): 24% | GI50 ([18]; HOP-62): 7.68 nM | activity at 100 µM ([18]; HOP-62, read-out: Percent Growth, log10 conc -4.0): 22% | activity at 10 µM ([18]; HOP-62, read-out: Percent Growth, log10 conc -5.0): 20% | activity at 1 µM ([18]; HOP-62, read-out: Percent Growth, log10 conc -6.0): 44% | activity at 0.1 µM ([18]; HOP-62, read-out: Percent Growth, log10 conc -7.0): 46% | activity at 0.01 µM ([18]; HOP-62, read-out: Percent Growth, log10 conc -8.0): 47% | activity at 0.001 µM ([18]; HOP-62, read-out: Percent Growth, log10 conc -9.0): 77% | activity at 0.0001 µM ([18]; HOP-62, read-out: Percent Growth, log10 conc -10.0): 101% | activity at 100 µM ([19]; SF-295, read-out: Percent Growth, log10 conc -4.0): -14% | activity at 10 µM ([19]; SF-295, read-out: Percent Growth, log10 conc -5.0): -10% | activity at 0.01 µM ([19]; SF-295, read-out: Percent Growth, log10 conc -8.0): 6% | activity at 0.001 µM ([19]; SF-295, read-out: Percent Growth, log10 conc -9.0): 16% | activity at 0.0001 µM ([19]; SF-295, read-out: Percent Growth, log10 conc -10.0): 104% | activity at 100 µM ([20]; OVCAR-3, read-out: Percent Growth, log10 conc -4.0): 5% | activity at 10 µM ([20]; OVCAR-3, read-out: Percent Growth, log10 conc -5.0): 5% | activity at 0.001 µM ([20]; OVCAR-3, read-out: Percent Growth, log10 conc -9.0): -11% | activity at 0.0001 µM ([20]; OVCAR-3, read-out: Percent Growth, log10 conc -10.0): 97% | activity at 100 µM ([21]; SK-OV-3, read-out: Percent Growth, log10 conc -4.0): 9% | activity at 10 µM ([21]; SK-OV-3, read-out: Percent Growth, log10 conc -5.0): 15% | activity at 1 µM ([21]; SK-OV-3, read-out: Percent Growth, log10 conc -6.0): 14% | activity at 0.1 µM ([21]; SK-OV-3, read-out: Percent Growth, log10 conc -7.0): 19% | activity at 0.01 µM ([21]; SK-OV-3, read-out: Percent Growth, log10 conc -8.0): 12% | activity at 0.001 µM ([21]; SK-OV-3, read-out: Percent Growth, log10 conc -9.0): 44% | activity at 0.0001 µM ([21]; SK-OV-3, read-out: Percent Growth, log10 conc -10.0): 95% | activity at 100 µM ([22]; A498, read-out: Percent Growth, log10 conc -4.0): 1% | activity at 10 µM ([22]; A498, read-out: Percent Growth, log10 conc -5.0): 3% | activity at 0.001 µM ([22]; A498, read-out: Percent Growth, log10 conc -9.0): 72% | activity at 0.0001 µM ([22]; A498, read-out: Percent Growth, log10 conc -10.0): 77% | GI50 ([23]; CAKI-1): 40.1 nM | activity at 100 µM ([23]; CAKI-1, read-out: Percent Growth, log10 conc -4.0): 37% | activity at 10 µM ([23]; CAKI-1, read-out: Percent Growth, log10 conc -5.0): 39% | activity at 1 µM ([23]; CAKI-1, read-out: Percent Growth, log10 conc -6.0): 36% | activity at 0.1 µM ([23]; CAKI-1, read-out: Percent Growth, log10 conc -7.0): 35% | activity at 0.01 µM ([23]; CAKI-1, read-out: Percent Growth, log10 conc -8.0): 73% | activity at 100 µM ([24]; read-out: Percent Growth, log10 conc -4.0): 16% | activity at 10 µM ([24]; read-out: Percent Growth, log10 conc -5.0): 27% | activity at 0.1 µM ([24]; read-out: Percent Growth, log10 conc -7.0): 38% | activity at 0.01 µM ([24]; read-out: Percent Growth, log10 conc -8.0): 39% | activity at 0.001 µM ([24]; read-out: Percent Growth, log10 conc -9.0): 27% | activity at 0.0001 µM ([24]; read-out: Percent Growth, log10 conc -10.0): 103%
